Here are results for two compounds from patent US20210395310A1, “Cyclic Peptide” (The University of Tokyo, priority 2018, published 2021).

Positions of bridges follow the written chain, without caps; N, C: chain ends. Non-standard residues stand in square brackets, D forms with d. Residues, ends and D or L forms follow the SMILES beside them. PEG12 = NCCOCCOCCOCCOCCOCCOCCOCCOCCOCCOCCOCCOCCC(=O)O; βAla = NCCC(=O)O

The subject of one assay is B16-F10 melanoma. As to the kind of experiment: Cell migration test. The following applies: transwell, 16 hours. Format: cell-based. Here is the method:
B16F10 cells (1×10^5 cells/insert) cultured in 200 μl of a RPMI1640 medium containing 0.5% FBS were seeded in the upper insert (transwell having a diameter of 8 mm, product of Corning) while 800 μl of a RPMI1640 medium with or without hHGF or HiP-8, or an anti-human HGF rabbit polyclonal antibody and supplemented with 0.5% FBS was added to the bottom chamber. The cells were cultured for 16 hours and fixed with 4% PFA solution in PBS. The cells attached to the bottom surface of the membrane were stained with 0.4% crystal violet solution in 20% methanol and the number of cells was counted.

Assay [1] has as its target T1, HGF (Homo sapiens, UniProt P14210).
T1 construct: the full-length human HGF cDNA was cloned into pEHX1.1 plasmid; made in house; host or cells: Chinese hamster ovary (CHO) cells
Put plainly: Binding of cyclic peptides to immobilized HGF by SPR (Biacore T200). The following applies: immobilized biotinylated HGF, single cycle kinetics. Here is the method:
Binding of the cyclic peptides to immobilized HGF was measured using surface plasmon resonance (SPR) with Biacore T200 (product of GE Healthcare). Specifically, 2000 resonance units (RU) of biotinylated HGF was immobilized onto a CAP sensor chip by using a biotin capture kit (product of GE Healthcare).
Binding of the cyclic peptides was tested by injecting varying concentrations of the cyclic peptides into an HBS EP+buffer (10 mM HEPES (pH 7.4), 150 mM NaCl, 3 mM EDTA, and 0.05% (v/v) Surfactant P20) containing 0.1% DMSO at a flow rate of 30 μl/min. Binding of the cyclic peptides to HGF was analyzed by single cycle kinetics analysis.

Assay [2] has as its target T1, HGF. As to the kind of experiment: Change in conformational structure of HGF: trypsin digestion. The conditions noted are these: HGF 2.5 μM ± HiP-8 10 μM, room temperature, 30 minutes. Here is the method: System of HGF (2.5 μM) with or without HiP-8 were digested with trypsin at room temperature for 30 minutes. A trypsin:HGF molar ratio was set at 0:1, 0.004:1, 0.012:1, 0.037:1, 0.11:1, 0.33:1, and 1:1. The product obtained by digestion was analyzed on from 5 to 20% SDS-PAGE under reducing conditions and stained with Coomassie Blue.
Target sequence in this assay (P14210 32-489 isoform P14210-3): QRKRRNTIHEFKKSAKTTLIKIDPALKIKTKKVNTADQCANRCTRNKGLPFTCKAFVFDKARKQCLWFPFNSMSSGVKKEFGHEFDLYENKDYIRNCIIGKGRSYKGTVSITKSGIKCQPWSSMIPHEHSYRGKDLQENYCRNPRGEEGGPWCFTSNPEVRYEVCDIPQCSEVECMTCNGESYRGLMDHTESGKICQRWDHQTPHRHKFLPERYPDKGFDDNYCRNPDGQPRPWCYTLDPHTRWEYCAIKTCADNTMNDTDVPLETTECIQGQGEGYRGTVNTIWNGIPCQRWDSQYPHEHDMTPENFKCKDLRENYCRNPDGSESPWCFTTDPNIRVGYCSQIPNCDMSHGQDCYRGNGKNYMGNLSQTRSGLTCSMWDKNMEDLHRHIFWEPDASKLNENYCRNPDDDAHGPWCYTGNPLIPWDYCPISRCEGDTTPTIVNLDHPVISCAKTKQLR
Target sequence in this assay (P14210 495-728): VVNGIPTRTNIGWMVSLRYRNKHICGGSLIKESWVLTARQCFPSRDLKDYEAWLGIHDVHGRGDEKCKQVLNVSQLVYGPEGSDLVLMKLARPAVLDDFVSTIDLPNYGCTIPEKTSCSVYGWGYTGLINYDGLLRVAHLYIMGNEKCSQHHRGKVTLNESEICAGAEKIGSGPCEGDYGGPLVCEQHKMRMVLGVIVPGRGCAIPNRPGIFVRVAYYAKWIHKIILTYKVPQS

Another assay has as its target T2, HGF-MET interaction (Homo sapiens, UniProt P14210).
T2 construct: the full-length human HGF cDNA was cloned into pEHX1.1 plasmid; made in house; host or cells: Chinese hamster ovary (CHO) cells (HGF)
Put plainly: Competition of HiP-8 against binding between HGF or HGF fragment and MET ECD by SPR. The conditions noted are these: immobilized MET external domain, varying HiP-8 concentrations. Here is the method: Competition of HiP-8 against the binding between HGF or HGF fragment and MET ECD was measured by surface plasmon resonance (SPR) with Biacore 3000 (product of GE Flealthcare). His-labeled MET-ECD was supported on the surface of a nitrilotriacetic acid (NTA)-coated chip at 1000 RU. HiP-8 was mixed in advance at gradually increasing concentrations with 5 nM HGF, 30 nM NK4, or 30 nM SP fragment, and the resulting mixture was tested in 10 mM TBS (pH 7.4), 300 mM NaCl, and 0.05% Tween 20 (v/v) at a flow rate of 30 μl/min.

Assay [3] relates to phosphorylation of MET, Gab1, Akt, and Erk1/2. Put plainly: Western blotting analysis of HGF-induced phosphorylation in EHMES-1 cells. Format: cell-based. The following applies: 2 nM HGF, HiP-8 10, 100, 1,000, 10,000 nM. Here is the method:
EHMES-1 cells were cultured on a 6-well plate until they were from 80 to 90% confluent. After starvation for 6 hours, the cells were stimulated for 10 minutes with 2 nM hHGF in a culture medium in the absence of a cyclic peptide or in the presence of 10, 100, 1,000, or 10,000 nM cyclic peptide. The resulting cells were washed with PBS and lysed with 200 μl of lysis buffer 17 (product of R&D Systems) containing 1× Complete protease inhibitor cocktail (product of Roche). The protein concentration was measured by BCA assay (product of Thermo Fisher Scientific), and the protein was provided for 10% polyacrylamide gel SDS-PAGE. The protein was transferred onto a PVDF (polyvinylidene difluoride) membrane (Bio-Rad) and detected using a Can Get Signal (registered trademark) solution 1 containing a primary antibody (diluted at 1:2000), that is, MET (CST, 25H2), phospho-MET (Tyr1234/1235) (CST, D26), Akt (CST, 11E7), phospho-Akt (Ser473) (CST, D9E), Erk1/2 (CST, 137F5), phospho-Erk1/2 (Thr202/Tyr204) (CST, D13.14.4E), Gab1 (CST) and phospho-Gab1 (Tyr627) (CST, C32H2), and Can Get Signal (registered trademark) solution 2 (product of Toyobo) containing a horseradish peroxidase-bound secondary antibody (product of Dako) (diluted at 1:5000). […]

For a further assay, the system named is PC-9 cells. As to the kind of experiment: Gefitinib resistance test. The format is cell-based, human. The following applies: gefitinib, HGF 20 ng/mL, 72 hours. Here is the method:
The resistance to gefitinib, an anticancer agent, was tested by seeding human lung cancer cells, PC-9 cells, on a 24-well plate and cultured for 24 hours on a RPMI medium containing 10% fetal bovine serum. The number of living cells was counted after non-addition or addition of gefitinib ([…]), HGF (20 ng/mL), or HiP8-PEG11 (1-1000 nM) and culturing for 72 hours.

Another assay has as its target T3, tcHGF (Homo sapiens, UniProt P14210).
T3 construct: subjected to extracellular processing (cleavage) by a specific protease and is to be converted into two-chain HGF; tissue US Biomax FLU401B; host or cells: frozen human lung cancer tissue sections
As to the kind of experiment: Tissue staining of frozen human lung cancer tissue. The conditions noted are these: thirty six lung cancer tissue sections. Here is the method:
A frozen human lung cancer tissue array FLU401B was obtained from US Biomax. A tissue section was fixed in a 4% (w/v) paraformaldehyde PBS solution at room temperature for 30 minutes, treated for one hour with a 3% (w/v) bovine serum-derived albumin (BSA) PBS solution to prevent non-specific adsorption of a probe, and incubated overnight at 4° C. with HiP-8-PEG11-biotin, a primary antibody against human HGF (clone: t5A11, Umitsu M, Sakai K, Ogasawara S, Kaneko M, Asaki R, Tamura-Kawakami K, Kato Y, Matsumoto K, Takagi J. Probing conformational and functional states of human hepatocyte growth factor by a panel of monoclonal antibodies. Scientific Reports, 6: 33149, 2016), or phosphorylated MET (phospho Y1230/1234/Y1235, product of Abeam) diluted with Can Get Signal (registered trademark) antibody staining (product of Toyobo).
After washing three times with PBS, the probes were detected with streptavidin or goat anti-mouse IgG labeled with Alexa Fluor 488 and goat anti-rabbit IgG (product of Thermo Fisher Scientific) labeled with Alexa Fluor 594.
For semi-quantitative detection of antibody staining, stained region and mixed region in each tissue was quantitatively determined by ImageJ software (product of NIH). […]

In assay [4] the test system is MET activation/tyrosine phosphorylation. Put plainly: MET activation inhibition test in mice. The format is in vivo. The conditions noted are these: human HGF knocked-in SCID mice with PC-9 tumors, intravenous injection. The source says:
PC-9 human non-small cell lung cancer cells, which were to express human HGF, were transplanted subcutaneously to human HGF knocked-in SCID mice at 3×10^6 cells/site. On day 28 after transplantation, HiP8-PEG11 in PBS/phosphate buffered physiological saline solution was intravenously injected. The tumor tissue was removed, and MET activated/tyrosine-phosphorylated and a total MET amount in the tumor tissue were quantitatively determined by western blotting with the tissue extract. It is to be noted that the tumor tissue was homogenized in a RIPA buffer solution. Each sample containing […] of the protein was provided for SDS-PAGE and western blotting. Tyrosine-phosphorylated MET and a total MET amount were detected by western blotting.

Assay [5] addresses T1, HGF. As to the kind of experiment: Binding of HGF to immobilized HiP8-PEG11 by SPR (Biacore 3000). The conditions noted are these: immobilized HiP-8-PEG11, read-out: KD of HGF binding to immobilized peptide. Here is the method: (§1) Binding of HGF and HGF fragments to immobilized HiP8-PEG11 was measured by surface plasmon resonance (SPR) with Biacore 3000 (product of Ge Flealthcare). Hip8-PEG11-biotin was supported on the surface of a streptavidin-coated chip at 10 RU (resonance unit). The test was performed by injecting HGF and HGF fragments with varying concentrations into 10 mM TBS (pH 7.4), 150 mM NaCl, and 0.05% Tween 20 (v/v) at a flow rate of 30 μl/min. Binding affinity was analyzed from a fitting model of steady-state affinity by multi-cycle kinetics analysis.
(§2) HGF was an active type HGF without substitution of the cleavage site of wild type HGF (KQLR/V) with the recognition sequence of Factor Xa (IEGR/V) and domain-deficiency and was a two-chain HGF capable of activating MET. tcHGF (Xa) was an HGF with substitution of the cleavage site of the HGF with the recognition sequence of Factor Xa (IEGR/V) and was cleaved into two chains by the Factor Xa treatment. It was also a two-chain HGF capable of activating MET. On the other hand, scHGF (Xa) was obtained by substituting the cleavage site of HGF with the recognition sequence of Factor Xa (IEGR/V).

The next assay deals with T4, scHGF(Xa) (Homo sapiens, UniProt P14210, K491I/L493G/Q492E).
T4 construct: The full-length HGF protein and N-terminally truncated HGF protein; hexahistidine (with TEV site) (C, cleaved yes); made in house; host or cells: Expi293F cells
As to the kind of experiment: Binding of scHGF(Xa) to immobilized HiP8-PEG11 by SPR (Biacore 3000). The following applies: immobilized HiP-8-PEG11. Here is the method: as §1, §2

T2 sequence (P14210 32-489 isoform P14210-3): as the sequence (P14210 32-489 isoform P14210-3) above
T2 sequence (P14210 495-728): as the sequence (P14210 495-728) above
T4 sequence (P14210 32-723 isoform P14210-3 K486I/Q487E/L488G): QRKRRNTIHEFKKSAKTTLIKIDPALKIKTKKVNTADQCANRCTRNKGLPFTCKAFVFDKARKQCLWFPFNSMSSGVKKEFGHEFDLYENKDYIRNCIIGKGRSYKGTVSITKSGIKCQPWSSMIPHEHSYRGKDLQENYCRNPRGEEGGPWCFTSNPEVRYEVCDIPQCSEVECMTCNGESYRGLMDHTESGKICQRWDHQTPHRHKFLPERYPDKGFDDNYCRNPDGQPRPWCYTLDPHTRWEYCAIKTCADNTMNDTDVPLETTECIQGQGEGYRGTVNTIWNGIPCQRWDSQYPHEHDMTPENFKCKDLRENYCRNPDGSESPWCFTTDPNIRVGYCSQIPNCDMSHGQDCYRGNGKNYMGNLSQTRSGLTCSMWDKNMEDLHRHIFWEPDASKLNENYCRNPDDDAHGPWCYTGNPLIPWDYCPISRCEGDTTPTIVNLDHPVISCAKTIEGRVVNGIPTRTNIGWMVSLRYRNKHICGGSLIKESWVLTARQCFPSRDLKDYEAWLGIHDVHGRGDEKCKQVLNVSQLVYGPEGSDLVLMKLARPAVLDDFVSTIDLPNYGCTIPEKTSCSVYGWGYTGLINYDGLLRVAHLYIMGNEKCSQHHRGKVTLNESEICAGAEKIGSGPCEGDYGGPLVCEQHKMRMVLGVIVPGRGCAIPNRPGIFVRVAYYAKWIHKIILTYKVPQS
T3 sequence (P14210 32-494 limits assumed): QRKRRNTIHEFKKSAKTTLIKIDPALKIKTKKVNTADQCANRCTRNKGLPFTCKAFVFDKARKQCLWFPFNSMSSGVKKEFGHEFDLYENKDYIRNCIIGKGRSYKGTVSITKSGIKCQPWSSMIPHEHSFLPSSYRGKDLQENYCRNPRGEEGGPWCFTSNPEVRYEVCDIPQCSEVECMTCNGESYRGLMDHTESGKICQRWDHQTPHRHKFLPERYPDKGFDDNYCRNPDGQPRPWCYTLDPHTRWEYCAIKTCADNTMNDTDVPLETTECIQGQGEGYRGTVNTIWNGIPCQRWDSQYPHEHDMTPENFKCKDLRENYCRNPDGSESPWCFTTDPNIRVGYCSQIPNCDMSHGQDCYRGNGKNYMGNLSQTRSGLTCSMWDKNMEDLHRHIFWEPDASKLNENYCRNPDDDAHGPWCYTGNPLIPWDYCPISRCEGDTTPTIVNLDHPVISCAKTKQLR
T3 sequence (P14210 495-728 limits assumed): as the sequence (P14210 495-728) above

As for `CC(C)C[C@@H]1NC(=O)[C@@H]2CCCN2C(=O)[C@@H](Cc2c[nH]c3ccccc23)NC(=O)CSC[C@@H](C(=O)NCC(N)=O)NC(=O)[C@H](CCCNC(=N)N)NC(=O)[C@H](CCCCN)NC(=O)[C@H](CO)NC(=O)[C@H](Cc2ccc(O)cc2)NC(=O)[C@H](Cc2c[nH]c3ccccc23)NC(=O)[C@H](Cc2c[nH]c3ccccc23)NC(=O)[C@H](CCCCN)NC(=O)[C@H](CO)NC1=O` [HiP-8, PLSKWWYSKR], the “B16-F10 melanoma migration induced by HGF” value with B16-F10 melanoma is given as “inhibited B16-F10 melanoma migration induced by HGF at a level equivalent to that of an anti-HGF antibody”. At HGF [1] (read-out: Ka (association rate)), the kon turned out to be 1.1e+06 M⁻¹ s⁻¹. In addition, the koff at HGF [1] (read-out: Kd (dissociation rate)) was 0.0004 s⁻¹. The “structural change of HGF (trypsin proteolysis of SP chain)” value on HGF [2] is “induced a change in the conformation of HGF”. For the same compound, the “mode of inhibition of HGF-MET interaction” value at HGF-MET interaction is listed as “uncompetitive inhibition of HGF-MET interaction”. In [3], the “phosphorylation of MET, Gab1, Akt, and Erk1/2 induced by HGF” value is “inhibited phosphorylation of MET, Gab1, Akt, and Erk1/2”. Also, in the assay on PC-9 cells, the “effect on gefitinib resistance induced by HGF” value was “inhibited gefitinib resistance induced by HGF”. On tcHGF, the “correlation of staining intensity of tcHGF detected by peptide with pMET” value was “strong correlation with the staining intensity of pMET”.

With `CC(C)C[C@@H]1NC(=O)[C@@H]2CCCN2C(=O)[C@H](Cc2c[nH]c3ccccc23)NC(=O)CSC[C@@H](C(=O)NCCC(=O)NCCOCCOCCOCCOCCOCCOCCOCCOCCOCCOCCOCCOCCC(N)=O)NC(=O)[C@H](CCCNC(=N)N)NC(=O)[C@H](CCCCN)NC(=O)[C@H](CO)NC(=O)[C@H](Cc2ccc(O)cc2)NC(=O)[C@H](Cc2c[nH]c3ccccc23)NC(=O)[C@H](Cc2c[nH]c3ccccc23)NC(=O)[C@H](CCCCN)NC(=O)[C@H](CO)NC1=O` [HiP-8-PEG11] ({CH2CO}-WPLSKWWYSKRC[βAla][PEG12]-NH2; thioether N-12), the “MET activation/tyrosine phosphorylation in tumor tissue” value in assay [4] is “dose-dependent inhibition of MET activation/tyrosine phosphorylation”. Also, on HGF [5], the Kd is 0.9 nM. In addition, the “binding of scHGF(Xa) to immobilized peptide” value at scHGF(Xa) was “very limited portion of the scHGF(Xa) bound”.
